Experimental data as given in the NIST ThermoML archive (doi:10.1016/j.fluid.2018.10.006).
± gives the expanded uncertainty stated by the source.

Conditions: Fluid (supercritical or subcritical phases), Coaxial cylinder method

CCCCCC [hexane]
Conditions	thermal conductivity [W/m/K]
511.55 K, 5000 kPa	0.07163 ± 0.0034
511.55 K, 5100 kPa	0.07163 ± 0.0034
511.55 K, 5300 kPa	0.07217 ± 0.0034
511.55 K, 5500 kPa	0.0724 ± 0.0034
511.55 K, 5800 kPa	0.07283 ± 0.0034
511.55 K, 6000 kPa	0.07313 ± 0.0034
511.55 K, 6200 kPa	0.07344 ± 0.0034
511.55 K, 6400 kPa	0.07374 ± 0.0034
511.55 K, 6600 kPa	0.07406 ± 0.0034
511.55 K, 6800 kPa	0.07437 ± 0.0035
511.55 K, 6900 kPa	0.07456 ± 0.0035
511.55 K, 7100 kPa	0.07481 ± 0.0035
511.55 K, 7200 kPa	0.07501 ± 0.0035
511.55 K, 7300 kPa	0.07513 ± 0.0035
511.55 K, 7500 kPa	0.07618 ± 0.0035
511.55 K, 7800 kPa	0.07658 ± 0.0036
511.55 K, 8000 kPa	0.07685 ± 0.0036
511.55 K, 8200 kPa	0.07712 ± 0.0036
511.55 K, 8300 kPa	0.07719 ± 0.0036
511.55 K, 8400 kPa	0.07733 ± 0.0036
511.55 K, 8500 kPa	0.07746 ± 0.0036
511.55 K, 8600 kPa	0.0776 ± 0.0036
511.55 K, 8700 kPa	0.07767 ± 0.0036
511.55 K, 9000 kPa	0.07803 ± 0.0036
511.55 K, 9100 kPa	0.07815 ± 0.0036
511.55 K, 9200 kPa	0.07822 ± 0.0036
511.55 K, 9300 kPa	0.07828 ± 0.0036
511.55 K, 9400 kPa	0.07837 ± 0.0036
511.55 K, 9700 kPa	0.0787 ± 0.0036
511.55 K, 10000 kPa	0.07902 ± 0.0037
511.79 K, 1600 kPa	0.03961 ± 0.002
511.79 K, 1800 kPa	0.04006 ± 0.0021
511.79 K, 1900 kPa	0.04052 ± 0.0021
511.79 K, 2000 kPa	0.041 ± 0.0021
511.79 K, 2090 kPa	0.04133 ± 0.0021
511.79 K, 2100 kPa	0.04148 ± 0.0021
511.79 K, 2110 kPa	0.04151 ± 0.0021
511.79 K, 2200 kPa	0.04198 ± 0.0021
511.79 K, 2300 kPa	0.0427 ± 0.0022
511.79 K, 2400 kPa	0.04354 ± 0.0022
511.79 K, 2500 kPa	0.04428 ± 0.0022
511.79 K, 2600 kPa	0.04543 ± 0.0023
511.79 K, 2700 kPa	0.04664 ± 0.0023
511.79 K, 2800 kPa	0.04819 ± 0.0024
511.79 K, 2817 kPa	0.04857 ± 0.0024
511.79 K, 2911 kPa	0.05076 ± 0.0025
511.79 K, 2958 kPa	0.052 ± 0.0025
511.79 K, 2987 kPa	0.05281 ± 0.0026
511.79 K, 3000 kPa	0.05337 ± 0.0026
511.79 K, 3049 kPa	0.05564 ± 0.0027
511.79 K, 3076 kPa	0.05734 ± 0.0028
511.79 K, 3093 kPa	0.05872 ± 0.0028
511.79 K, 3101 kPa	0.05933 ± 0.0029
511.79 K, 3113 kPa	0.06039 ± 0.0029
511.79 K, 3121 kPa	0.06126 ± 0.0029
511.79 K, 3133 kPa	0.06272 ± 0.003
511.79 K, 3143 kPa	0.06414 ± 0.003
511.79 K, 3151 kPa	0.06537 ± 0.0031
511.79 K, 3156 kPa	0.06613 ± 0.0031
511.79 K, 3163 kPa	0.06743 ± 0.0032
511.79 K, 3167 kPa	0.06811 ± 0.0033
511.79 K, 3169 kPa	0.06851 ± 0.0033
511.79 K, 3172 kPa	0.06906 ± 0.0034
511.79 K, 3175 kPa	0.06962 ± 0.0034
511.79 K, 3177 kPa	0.07014 ± 0.0035
511.79 K, 3179 kPa	0.07048 ± 0.0035
511.79 K, 3181 kPa	0.07092 ± 0.0035
511.79 K, 3183 kPa	0.07134 ± 0.0036
511.79 K, 3185 kPa	0.07166 ± 0.0037
511.79 K, 3186 kPa	0.07193 ± 0.0037
511.79 K, 3188 kPa	0.07227 ± 0.0037
511.79 K, 3189 kPa	0.07257 ± 0.0038
511.79 K, 3190 kPa	0.07273 ± 0.0038
511.79 K, 3191 kPa	0.07304 ± 0.0038
511.79 K, 3192 kPa	0.07319 ± 0.0039
511.79 K, 3193 kPa	0.07344 ± 0.0039
511.79 K, 3194 kPa	0.07367 ± 0.0039
511.79 K, 3195 kPa	0.07382 ± 0.0039
511.79 K, 3196 kPa	0.07398 ± 0.004
511.79 K, 3197 kPa	0.07424 ± 0.004
511.79 K, 3198 kPa	0.07446 ± 0.004
511.79 K, 3199 kPa	0.07463 ± 0.0041
511.79 K, 3200 kPa	0.07479 ± 0.0041
511.79 K, 3202 kPa	0.07528 ± 0.0041
511.79 K, 3204 kPa	0.07561 ± 0.0043
511.79 K, 3205 kPa	0.07578 ± 0.0043
511.79 K, 3206 kPa	0.07595 ± 0.0042
511.79 K, 3209 kPa	0.07635 ± 0.0043
511.79 K, 3212 kPa	0.07676 ± 0.0043
511.79 K, 3214 kPa	0.077 ± 0.0043
511.79 K, 3216 kPa	0.07724 ± 0.0043
511.79 K, 3219 kPa	0.07745 ± 0.0042
511.79 K, 3221 kPa	0.07749 ± 0.0042
511.79 K, 3223 kPa	0.07756 ± 0.0041
511.79 K, 3226 kPa	0.07759 ± 0.0041
511.79 K, 3231 kPa	0.07766 ± 0.0039
511.79 K, 3234 kPa	0.07766 ± 0.0037
511.79 K, 3236 kPa	0.07745 ± 0.0037
511.79 K, 3237 kPa	0.07745 ± 0.0037
511.79 K, 3240 kPa	0.07732 ± 0.0036
511.79 K, 3243 kPa	0.07697 ± 0.0036
511.79 K, 3246 kPa	0.07663 ± 0.0036
511.79 K, 3247 kPa	0.07629 ± 0.0036
511.79 K, 3251 kPa	0.07496 ± 0.0035
511.79 K, 3253 kPa	0.07496 ± 0.0035
511.79 K, 3256 kPa	0.07463 ± 0.0035
511.79 K, 3257 kPa	0.07431 ± 0.0035
511.79 K, 3264 kPa	0.07399 ± 0.0036
511.79 K, 3265 kPa	0.07367 ± 0.0036
511.79 K, 3269 kPa	0.07336 ± 0.0036
511.79 K, 3270 kPa	0.07336 ± 0.0036
511.79 K, 3276 kPa	0.07336 ± 0.0035
511.79 K, 3278 kPa	0.07336 ± 0.0035
511.79 K, 3280 kPa	0.07336 ± 0.0035
511.79 K, 3285 kPa	0.07336 ± 0.0035
511.79 K, 3291 kPa	0.07243 ± 0.0034
511.79 K, 3293 kPa	0.07243 ± 0.0034
511.79 K, 3295 kPa	0.07243 ± 0.0034
511.79 K, 3300 kPa	0.07213 ± 0.0034
511.79 K, 3301 kPa	0.07183 ± 0.0034
511.79 K, 3306 kPa	0.07183 ± 0.0034
511.79 K, 3310 kPa	0.07153 ± 0.0034
511.79 K, 3313 kPa	0.07123 ± 0.0034
511.79 K, 3315 kPa	0.07123 ± 0.0034
511.79 K, 3319 kPa	0.07122 ± 0.0034
511.79 K, 3321 kPa	0.07122 ± 0.0033
511.79 K, 3325 kPa	0.07122 ± 0.0034
511.79 K, 3327 kPa	0.07122 ± 0.0034
511.79 K, 3330 kPa	0.07122 ± 0.0034
511.79 K, 3332 kPa	0.07122 ± 0.0034
511.79 K, 3335 kPa	0.07122 ± 0.0033
511.79 K, 3340 kPa	0.07122 ± 0.0033
511.79 K, 3346 kPa	0.07122 ± 0.0033
511.79 K, 3350 kPa	0.07123 ± 0.0033
511.79 K, 3353 kPa	0.07123 ± 0.0033
511.79 K, 3355 kPa	0.07123 ± 0.0033
511.79 K, 3360 kPa	0.07123 ± 0.0033
511.79 K, 3365 kPa	0.07064 ± 0.0033
511.79 K, 3367 kPa	0.07064 ± 0.0033
511.79 K, 3368 kPa	0.07064 ± 0.0033
511.79 K, 3370 kPa	0.07064 ± 0.0033
511.79 K, 3375 kPa	0.07064 ± 0.0033
511.79 K, 3380 kPa	0.07064 ± 0.0033
511.79 K, 3385 kPa	0.07064 ± 0.0033
511.79 K, 3390 kPa	0.07064 ± 0.0033
511.79 K, 3395 kPa	0.07064 ± 0.0033
511.79 K, 3400 kPa	0.07064 ± 0.0033
511.79 K, 3410 kPa	0.07064 ± 0.0033
511.79 K, 3420 kPa	0.07065 ± 0.0033
511.79 K, 3440 kPa	0.07065 ± 0.0033
511.79 K, 3460 kPa	0.07065 ± 0.0033
511.79 K, 3500 kPa	0.07041 ± 0.0033
511.79 K, 3600 kPa	0.06993 ± 0.0033
511.79 K, 3657 kPa	0.06978 ± 0.0033
511.79 K, 3700 kPa	0.06973 ± 0.0033
511.79 K, 3750 kPa	0.06973 ± 0.0033
511.79 K, 3800 kPa	0.06973 ± 0.0033
511.79 K, 3850 kPa	0.06973 ± 0.0033
511.79 K, 3900 kPa	0.06973 ± 0.0033
511.79 K, 3950 kPa	0.06975 ± 0.0033
511.79 K, 3980 kPa	0.06975 ± 0.0033
511.79 K, 4000 kPa	0.06988 ± 0.0033
511.79 K, 4030 kPa	0.06995 ± 0.0033
511.79 K, 4100 kPa	0.07011 ± 0.0033
